According to paper PMC7395068, “The evolution of strategies to minimise the risk of human drug-induced liver injury (DILI) in drug discovery and development” (Archives of Toxicology, 2020):
Where two headings read alike, the source gives them in different places.

What was measured:
[1] = test system: HepG2 C3A spheroid, BSEP, Glu/Gal in HepG2 cells, bioactivation; conditions: cited from earlier work
[2] = test system: THLE or HepG2 cells, isolated mitochondria, BSEP; conditions: cited from earlier work; for Partition Hybrid HRM Score / Ro2 Hybrid HRM Score: In vitro Assay, ref Aleo 2019; for Partition Hybrid HRM Score ≥4, Aleo (2019) / Partition Hybrid HRM Score ≥8, Aleo (2019) / Rule of Two hybrid HRM Score ≥3, Aleo (2019) / Rule of Two hybrid HRM Score ≥8, Aleo (2019): Modeled in vitro assays (cytotoxicity, mitochondrial dysfunction, BSEP), ref Aleo et al. 2019
[3] = test system: HepG2 cells; conditions: cited from earlier work; for Cluser analysis / Structural based (HCI): In vitro Assay, ref Persson 2013
[4] = Plasma free fraction (fu) and unbound Cmax (Cmax,u); type: in vitro ADME, human; conditions: unbound plasma Cmax
[5] = test system: hLiMTs; conditions: cited from earlier work; for hLiMTs ATP <100uM: In vitro Assay, ref Proctor 2017; for hLiMTs/100uM, Proctor (2017): ATP, IC50 threshold 100 µM, ref Proctor et al. 2017
[6] = test system: isolated mouse liver mitochondria; conditions: In vitro Assay; ref Porceddu 2012; cited from earlier work
[7] = test system: PHH; conditions: cited from earlier work; for PHH/100uM, Proctor (2017): 2D PHH, ATP, IC50 threshold 100 µM, ref Proctor et al. 2017; for PHH ATP <100uM: In vitro Assay, ref Proctor 2017
[8] = plasma free fraction; cited from earlier work
[9] = test system: HepaRG spheroids; assay: Combined HCI (HCS) and cellular ATP 3D assay in HepaRG spheroids; conditions: for HepaRG <25x Avg Cmax ATP / HepaRG <100x Avg Cmaxu ATP: ATP endpoint; for HepaRG <25x Avg Cmax ATP / HepaRG <25x Avg Cmax HCS / HepaRG <25x Avg Cmax All: cut-off <25x Avg Cmax; for HepaRG <100x Avg Cmaxu ATP / HepaRG <100x Avg Cmaxu HCS / HepaRG <100x Avg Cmaxu All: cut-off <100x Avg Cmaxu; for HepaRG <25x Avg Cmax HCS / HepaRG <100x Avg Cmaxu HCS: HCS endpoints; for HepaRG <25x Avg Cmax All: all endpoints (ATP and HCS); for HepaRG Cmax max All / HepaRG Cmax min All / HepaRG <10 uM All / HepaRG <100x Avg Cmaxu All: all endpoints; for HepaRG Cmax max All: Cmax max used; for HepaRG Cmax min All: Cmax min used; for HepaRG <10 uM All: cut-off <10 uM; for AC50 / minimal effective concentration: Homo sapiens; for HepaRG <25x Avg Cmax ATP / HepaRG <100x Avg Cmaxu ATP / HepaRG <25x Avg Cmax HCS / HepaRG <100x Avg Cmaxu HCS / HepaRG <25x Avg Cmax All / HepaRG Cmax max All / HepaRG Cmax min All / HepaRG <10 uM All / HepaRG <100x Avg Cmaxu All / AC50 / minimal effective concentration: HepaRG
[10] = cited from earlier work
[11] = test system: hLiMTs; assay: Combined HCI (HCS) and cellular ATP 3D assay in hLiMTs; conditions: for AC50 / minimal effective concentration: Homo sapiens; for hLiMTs <25x Avg Cmax ATP / hLiMTs <100x Avg Cmaxu ATP: ATP endpoint; for hLiMTs <25x Avg Cmax ATP / hLiMTs <25x Avg Cmax HCS / hLiMTs <25x Avg Cmax All: cut-off <25x Avg Cmax; for hLiMTs <100x Avg Cmaxu ATP / hLiMTs <100x Avg Cmaxu HCS / hLiMTs <100x Avg Cmaxu All: cut-off <100x Avg Cmaxu; for hLiMTs <25x Avg Cmax HCS / hLiMTs <100x Avg Cmaxu HCS: HCS endpoints; for hLiMTs <25x Avg Cmax All: all endpoints (ATP and HCS); for hLiMTs Cmax max All / hLiMTs Cmax min All / hLiMTs <10 uM All / hLiMTs <100x Avg Cmaxu All: all endpoints; for hLiMTs Cmax max All: Cmax max used; for hLiMTs Cmax min All: Cmax min used; for hLiMTs <10 uM All: cut-off <10 uM
[12] = read-out: Human plasma Cmax; total plasma Cmax.tot, median of 9 literature references; cited from earlier work
[13] = test system: PHH; conditions: In vitro Assay; ref Albrecht 2019; cited from earlier work
[14] = test system: HepG2; design: method as in Albrecht 2019; conditions: In vitro Assay; ref Albrecht 2019; cited from earlier work
[15] = ref Chen 2011; cited from earlier work
[16] = test system: HepG2 cells; conditions: cited from earlier work
[17] = test system: PHH spheroids; conditions: cited from earlier work
[18] = cited from earlier work; remark: listed apart in the source
[19] = test system: THLE-Null and THLE-3A4 cells; conditions: In vitro Assay; ref Gustafsson 2014; cited from earlier work
[20] = test system: rBsep; conditions: In vitro Assay; ref Dawson 2012; cited from earlier work
[21] = test system: HepG2 cells, primary human hepatocytes; conditions: In vitro Assay; ref Garside 2014; cited from earlier work
[22] = Microtissue model structural based (HCI), combined HCS and ATP, MEC < 25 × Cmax.tot cut-off

O=C1CN(/N=C/c2ccc([N+](=O)[O-])o2)C(=O)N1 [nitrofurantoin, reference compound]
Bayesian Machine Learning DILI prediction, Williams (2019) ([1]; Bayesian modeling, ref Williams et al. 2019): +VE | Bayesian Machine Learning ([1]; In vitro Assay, ref Williams 2019): +VE | Partition Hybrid HRM Score [2]: +VE | Ro2 Hybrid HRM Score [2]: +VE | Partition Hybrid HRM Score ≥4, Aleo (2019) [2]: +VE (Partition Hybrid HRM Score ≥4) | Partition Hybrid HRM Score ≥8, Aleo (2019) [2]: -VE | Rule of Two hybrid HRM Score ≥3, Aleo (2019) [2]: +VE (Rule of Two hybrid HRM Score ≥3) | Rule of Two hybrid HRM Score ≥8, Aleo (2019) [2]: -VE | Cluser analysis [3]: -VE | Structural based (HCI) [3]: +VE | DILI in vitro assay prediction, Persson (2013) ([3]; Structural based (HCI), HepG2, ref Persson et al. 2013): -VE | Human plasma Cmax,u [4]: 6.508 µM | hLiMTs ATP <100uM [5]: +VE (IC50 threshold of 100 µM) | hLiMTs/100uM, Proctor (2017) [5]: +VE (IC50 threshold of 100 µM) | in vitro data EC2<=1x Cmax [6]: +VE | in vitro data EC20<=2uM [6]: -VE | PHH/100uM, Proctor (2017) [7]: +VE (IC50 threshold of 100 µM) | PHH ATP <100uM [7]: +VE (IC50 threshold of 100 µM) | fu [8]: 0.310 | HepaRG <25x Avg Cmax ATP [9]: +ve | HepaRG <100x Avg Cmaxu ATP [9]: +ve (<100x Avg Cmaxu) | HepaRG <25x Avg Cmax HCS [9]: +ve | HepaRG <100x Avg Cmaxu HCS [9]: +ve (<100x Avg Cmaxu) | HepaRG <25x Avg Cmax All [9]: +ve | HepaRG Cmax max All [9]: +ve | HepaRG Cmax min All [9]: +ve | HepaRG <10 uM All [9]: +ve (<10 uM) | HepaRG <100x Avg Cmaxu All [9]: +ve (<100x Avg Cmaxu) | AC50 ([9]; read-out: ATP endpoint AC50): 11.6 µM | minimal effective concentration ([9]; read-out: ATP endpoint MEC): 9.27 µM | AC50 ([9]; read-out: HCS endpoint AC50): 17.5 µM | minimal effective concentration ([9]; read-out: HCS endpoint MEC): 5.59 µM | DILI prediction HepaRG spheroids (HCS-MEC) [9, 22]: +VE (MEC < 25 × Cmax.tot cut-off) | DILI severity category (Chen et al. [2016]) ([10]; LTKB DILIrank category, ref Chen et al. 2016): Most | DILI severity category (Chen 2016) ([10]; human DILI classification, LTKB DILIrank, ref Chen et al. 2016): Most | DILI severity category ([10]; human DILI severity, ref Chen et al.): Most | DILI +VE (5-8), DILI -VE (-4) ([10]; ref Chen 2016): +VE | DILI severity category ([10]; ref Chen 2016): vMost-DILI-Concern | AC50 ([11]; read-out: ATP endpoint AC50): 11.7 µM | minimal effective concentration ([11]; read-out: ATP endpoint MEC): 3.21 µM | AC50 ([11]; read-out: HCS endpoint AC50): 73.6 µM | minimal effective concentration ([11]; read-out: HCS endpoint MEC): 19.4 µM | DILI prediction hLiMTs (HCS-MEC) [11, 22]: +VE (MEC < 25 × Cmax.tot cut-off) | hLiMTs <25x Avg Cmax ATP [11]: +ve | hLiMTs <100x Avg Cmaxu ATP [11]: +ve (<100x Avg Cmaxu) | hLiMTs <25x Avg Cmax HCS [11]: +ve | hLiMTs <100x Avg Cmaxu HCS [11]: +ve (<100x Avg Cmaxu) | hLiMTs <25x Avg Cmax All [11]: +ve | hLiMTs Cmax max All [11]: +ve | hLiMTs Cmax min All [11]: +ve | hLiMTs <10 uM All [11]: +ve (<10 uM) | hLiMTs <100x Avg Cmaxu All [11]: +ve (<100x Avg Cmaxu) | Cmax [12]: 21 µM | Cytotoxicity PHH 48 hrs [13]: +VE | Cytotoxicity HepG2 48 hrs [14]: +VE | DILI Score (FDA) (1-8) [15]: 8 | Structural based (HCI) ([16]; In vitro Assay, ref O'Brien 2006): +VE | DILI in vitro assay prediction, O'Brien (2006) ([16]; Structural based (HCI), HepG2, ref O'Brien et al. 2006): +VE (lowest HCI endpoint IC50 (or in the absence of dose–response < 100 µM) < 30 × total human plasma exposure levels (Cmax.tot)) | hLiMTs ATP <20 x Cmax ([17]; In vitro Assay, ref Vorrink 2018): +VE (IC20 < 20 × Cmax.tot cut-off) | DILI in vitro assay prediction, Vorrink (2018) ([17]; PHH spheroids, ATP, 14 days, IC20 < 20 × Cmax.tot, ref Vorrink et al. 2018): +VE (IC20 < 20 × Cmax.tot cut-off) | Assigned DILI category ([18]; Chen et al. 2016 or literature alignment, ref Chen et al. 2016): 3 | In vivo DILI ([18]; […]): +VE | In vivo DILI ([18]; ref Albrecht 2019): +VE | In vivo DILI ([18]; ref Aleo 2019): +VE | In vivo DILI ([18]; ref Dawson 2012): +VE | In vivo DILI ([18]; ref Garside 2014): +VE | In vivo DILI ([18]; ref Gustafsson 2014): +VE | In vivo DILI ([18]; ref O'Brien 2006): +VE | In vivo DILI ([18]; ref Persson 2013): +VE | In vivo DILI ([18]; ref Porceddu 2012): +VE | In vivo DILI ([18]; ref Proctor 2017): +VE | In vivo DILI ([18]; ref Vorrink 2018): +VE | In vivo DILI ([18]; ref Williams 2019): +VE | THLE-Null [19]: -VE | Inhibition of rBsep cutoff<1& cmax u>.2 [20]: -VE | Inhibition of rBsep cutoff<3 [20]: -VE

CCCC(CCC)C(=O)O [valproic acid]
Partition Hybrid HRM Score [2]: +VE | Ro2 Hybrid HRM Score [2]: +VE | Partition Hybrid HRM Score ≥4, Aleo (2019) [2]: +VE (Partition Hybrid HRM Score ≥4) | Partition Hybrid HRM Score ≥8, Aleo (2019) [2]: +VE (Partition Hybrid HRM Score ≥8) | Rule of Two hybrid HRM Score ≥3, Aleo (2019) [2]: +VE (Rule of Two hybrid HRM Score ≥3) | Rule of Two hybrid HRM Score ≥8, Aleo (2019) [2]: -VE | Cluser analysis [3]: -VE | Structural based (HCI) [3]: -VE | Human plasma Cmax,u [4]: 55.474 µM | hLiMTs ATP <100uM [5]: -VE | hLiMTs/100uM, Proctor (2017) [5]: -VE | in vitro data EC2<=1x Cmax [6]: +VE | in vitro data EC20<=2uM [6]: -VE | PHH/100uM, Proctor (2017) [7]: -VE | PHH ATP <100uM [7]: -VE | fu [8]: 0.080 | HepaRG <25x Avg Cmax ATP [9]: +ve | HepaRG <100x Avg Cmaxu ATP [9]: +ve (<100x Avg Cmaxu) | HepaRG <25x Avg Cmax HCS [9]: +ve | HepaRG <100x Avg Cmaxu HCS [9]: +ve (<100x Avg Cmaxu) | HepaRG <25x Avg Cmax All [9]: +ve | HepaRG Cmax max All [9]: +ve | HepaRG Cmax min All [9]: +ve | HepaRG <10 uM All [9]: -ve | HepaRG <100x Avg Cmaxu All [9]: +ve (<100x Avg Cmaxu) | AC50 ([9]; read-out: ATP endpoint AC50): 41.3 µM | minimal effective concentration ([9]; read-out: ATP endpoint MEC): 12.3 µM | AC50 ([9]; read-out: HCS endpoint AC50): 148 µM | minimal effective concentration ([9]; read-out: HCS endpoint MEC): 45.6 µM | Cluster 1-6 +VE Assay [21]: +VE | AC50 ([11]; read-out: ATP endpoint AC50): 7080 µM | minimal effective concentration ([11]; read-out: ATP endpoint MEC): 6220 µM | minimal effective concentration ([11]; read-out: HCS endpoint MEC): 1600 µM | hLiMTs <25x Avg Cmax ATP [11]: +ve | hLiMTs <100x Avg Cmaxu ATP [11]: -ve | hLiMTs <25x Avg Cmax HCS [11]: +ve | hLiMTs <100x Avg Cmaxu HCS [11]: +ve (<100x Avg Cmaxu) | hLiMTs <25x Avg Cmax All [11]: +ve | hLiMTs Cmax max All [11]: +ve | hLiMTs Cmax min All [11]: +ve | hLiMTs <10 uM All [11]: -ve | hLiMTs <100x Avg Cmaxu All [11]: +ve (<100x Avg Cmaxu) | Cmax [12]: 693 µM | Cytotoxicity PHH 48 hrs [13]: +VE | Cytotoxicity HepG2 48 hrs [14]: +VE | THLE-Null [19]: -VE
